Measurements taken from US9428549B2, “Derivatives of N-urea substituted amino acids as formyl peptide receptor modulators” (Allergan, Inc., priority 2013, dated 2016).
Where “and” joins values, the source holds several entries; their conditions need not be identical. Equal entries are not always repeated.

Target: T1, FPR2 (Homo sapiens, UniProt P25090)
T1 construct: expressed in transfected cells
T1 sequence (P25090 1-351): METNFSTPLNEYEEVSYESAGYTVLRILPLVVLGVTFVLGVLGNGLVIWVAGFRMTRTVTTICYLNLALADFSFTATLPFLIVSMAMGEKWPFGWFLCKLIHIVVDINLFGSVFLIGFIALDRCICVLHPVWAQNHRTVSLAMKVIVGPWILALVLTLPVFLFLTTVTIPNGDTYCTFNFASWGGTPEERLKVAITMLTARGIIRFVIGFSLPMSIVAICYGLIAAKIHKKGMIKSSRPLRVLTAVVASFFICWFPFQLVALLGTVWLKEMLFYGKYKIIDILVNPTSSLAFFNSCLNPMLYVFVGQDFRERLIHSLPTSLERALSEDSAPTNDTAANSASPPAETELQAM
Test: Compound-induced calcium activity on FLIPR Tetra in CHO-Gα16 cells stably expressing FPRL1
Format: cell-based
Details: for FPR2 Ga16-CHO (Rel. eff.): relative efficacy; for EC50: tested 0.61 to 10,000 nM, read-out: FPR2 Ga16-CHO EC50
Experimental: CHO-Gα16 cells stably expressing FPRL1 were cultured in (F12, 10% FBS, 1% PSA, 400 μg/ml geneticin and 50 μg/ml hygromycin) and HEK-Gqi5 cells stable expressing FPR1 were cultured in (DMEM high glucose, 10% FBS, 1% PSA, 400 μg/ml geneticin and 50 μg/ml hygromycin). In general, the day before the experiment, 18,000 cells/well were plated in a 384-well clear bottom poly-d-lysine coated plate. The following day the screening compound-induced calcium activity was assayed on the FLIPR^Tetra. The drug plates were prepared in 384-well microplates using the EP3 and the MultiPROBE robotic liquid handling systems. Compounds were tested at concentrations ranging from 0.61 to 10,000 nM. Results are expressed as EC50 (nM) and efficacy values.

| Compound | FPR2 Ga16-CHO (Rel. eff.) (listed as {Ethyl[(2S)-4-Methyl-2-({[4-(trifluoromethyl)phenyl]carbamoyl}amino)pentanoyl]am) | FPR2 Ga16-CHO (Rel. eff.) (listed as {Ethyl[(2S)-4-methyl-2-({[4-(trifluoromethyl)phenyl]carbamoyl}amino)pentanoyl]am) | EC50 | FPR2 Ga16-CHO (Rel. eff.) |
| --- | --- | --- | --- | --- |
| CCN(CC(=O)O)C(=O)[C@H](CC(C)C)NC(=O)Nc1ccc(C(F)(F)F)cc1 [Compound 15, {Ethyl[(2S)-4-Methyl-2-({[4-(trifluoromethyl)phenyl]carbamoyl}amino)pentanoyl]amino}acetic acid] | (0.85) | (1.02) | 0.32 nM and 1.85 nM |  |
| CC(C)C[C@H](NC(=O)Nc1ccc(Br)cc1)C(=O)N(C)CC(=O)OC(C)(C)C [Compound 1, tert-Butyl{[(2S)-2-{[(4-Bromophenyl)carbamoyl]amino}-4-methylpentanoyl](methyl)amino}acetate] |  |  | 11.8 nM | (0.85) |
| CCCN(CC(=O)OC(C)(C)C)C(=O)[C@H](CC(C)C)NC(=O)Nc1ccc(Br)cc1 [Compound 4, tert-Butyl {[(2S)-2-{[(4-Bromophenyl)carbamoyl]amino}-4-methylpentanoyl](propyl)amino}acetate] |  |  | 0.29 nM | (1.04) |
| CC(C)C[C@H](NC(=O)Nc1ccc(Br)cc1)C(=O)N(CC(=O)O)C(C)C [Compound 10, {[(2S)-2-{[(4-Bromophenyl)carbamoyl]amino}-4-methylpentanoyl](propan-2-yl)amino}acetic acid] |  |  | 0.24 nM | (0.97) |
| CC(C)C[C@H](NC(=O)Nc1ccc(Br)cc1)C(=O)N(CC(=O)OC(C)(C)C)C(C)C [Compound 3, tert-Butyl {[(2S)-2-{[(4-Bromophenyl)carbamoyl]amino}-4-methylpentanoyl](propan-2-yl)amino}acetate] |  |  | 163 nM | (1.06) |
| CCCN(CC(=O)OC(C)(C)C)C(=O)[C@H](CC(C)C)NC(=O)Nc1ccc(C(F)(F)F)cc1 [Compound 5, tert-Butyl {[(2S)-4-Methyl-2-({[4-(trifluoromethyl)phenyl]carbamoyl}amino)pentanoyl](propyl)amino}acetate] |  |  | 434 nM | (0.95) |
| CC(C)C[C@H](NC(=O)Nc1ccc(C(F)(F)F)cc1)C(=O)N(C)CC(=O)O [Compound 9, {Methyl[(2S)-4-Methyl-2-({[4-(trifluoromethyl)phenyl]carbamoyl}amino)pentanoyl]amino}acetic acid] |  |  | 0.41 nM | (1.02) |
| CCN(CC(=O)OC(C)(C)C)C(=O)[C@H](CC(C)C)NC(=O)Nc1ccc(C(F)(F)F)cc1 [Compound 7, tert-Butyl {Ethyl[(2S)-4-methyl-2-({[4-(trifluoromethyl)phenyl]carbamoyl}amino)pentanoyl]amino}acetate] |  |  | 17 nM | (0.91) |
| CC(C)C[C@H](NC(=O)Nc1ccc(Br)cc1)C(=O)N(C)CC(=O)O [Compound 8, {[(2S)-2-{[(4-bromophenyl)carbamoyl]amino}-4-methylpentanoyl](methyl)amino}acetic acid] |  |  | < 1 nM | (1.00) |
| CCCN(CC(=O)O)C(=O)[C@H](CC(C)C)NC(=O)Nc1ccc(C(F)(F)F)cc1 [Compound 13, {[(2S)-4-Methyl-2-({[4-(trifluoromethyl)phenyl]carbamoyl}amino)pentanoyl](propyl)amino}acetic acid] |  |  | < 1 nM | (1.04) |
| CCN(CC(=O)O)C(=O)[C@H](CC(C)C)NC(=O)Nc1ccc(Br)cc1 [Compound 14, {[(2S)-2-{[(4-Bromophenyl)carbamoyl]amino}-4-methylpentanoyl](ethyl)amino}acetic acid] |  |  | 0.13 nM | (0.99) |
| CC(C)C[C@H](NC(=O)Nc1ccc(C(F)(F)F)cc1)C(=O)N(CC(=O)O)C(C)C [Compound 11, {[(2S)-4-Methyl-2-({[4-(trifluoromethyl)phenyl]carbamoyl}amino)pentanoyl](propan-2-yl)amino}acetic acid] |  |  | 1730 nM | (0.75) |
| CCN(CC(=O)OC(C)(C)C)C(=O)[C@H](CC(C)C)NC(=O)Nc1ccc(Br)cc1 [Compound 6, tert-Butyl {[(2S)-2-{[(4-bromophenyl)carbamoyl]amino}-4-methylpentanoyl](ethyl)amino}acetate] |  |  | 1970 nM | (0.50) |
| CC(C)C[C@H](NC(=O)Nc1ccc(C(F)(F)F)cc1)C(=O)N(C)CC(=O)OC(C)(C)C [Compound 2, tert-Butyl {Methyl[(2S)-4-methyl-2-({[4-(trifluoromethyl)phenyl]carbamoyl}amino)pentanoyl]amino}acetate] |  |  | 995 nM | (1.02) |
